# In publication PMC6718988, “Bioactivity and Bactericidal Mechanism of Histidine-Rich β-Hairpin Peptide Against Gram-Negative Bacteria” (International Journal of Molecular Sciences, 2019):
# Where two headings read alike, the source gives them in different places. Where a SMILES comes first, the peptide text is derived from it. Bridges are numbered along the chain shown (N, C = ends). [ ]: non-standard residue; d: D form. The star is where a group is joined. X1 = CC[C@H](C)CCCCC(=O)*; Dab = NCC[C@H](N)C(=O)O
# What was measured:
# E. coli ATCC25922 = test: microbe, parasite or virus in culture
# Protocol: (§1) The minimum inhibitory concentration (MIC) was measured using a broth microdilution method to determine the in vitro antimicrobial activity of the peptides. Bacteria were inoculated into MHB and incubated overnight at 37 °C until the bacteria were in log phase growth. Next, we corrected the bacterial concentration to approximately 1 × 10^5 CFU/mL using MHB. The peptides were added to 96-well plates containing 0.01% acetic acid and 0.2% bovine serum albumin at final concentrations ranging from 0.25 to 128 μM. After incubation at 37 °C for 24 h, the absorbance was measured at 492 nm using a microplate reader (Tecan GENios F129004, Tecan, Austria). Broth containing microbes and […] were used as positive and negative controls, respectively. The lowest peptide concentration with no increase in absorbance compared to that of the negative control was defined as the MIC. The experiments were independently performed three times.
# S. epidermidis ATCC12228 = test: microbe, parasite or virus in culture
# Protocol: as §1
# E. coli K88 = test: microbe, parasite or virus in culture
# Protocol: as §1
# S. pullorum C7913 = test: microbe, parasite or virus in culture
# Protocol: as §1
# [1] = test system: methicillin-resistant S. aureus ATCC43300; test: microbe, parasite or virus in culture
# Protocol: as §1
# E. coli K99 = test: microbe, parasite or virus in culture
# Protocol: as §1
# E. coli UB1005 = test: microbe, parasite or virus in culture
# Protocol: as §1
# S. aureus ATCC29213 = test: microbe, parasite or virus in culture
# Protocol: as §1
# P. aeruginosa ATCC27853 = test: microbe, parasite or virus in culture
# Protocol: as §1
# Gram-negative bacteria = test: MICs against Gram-negative strains (geometric mean, range); type: cell-based; conditions: for geometric mean MIC: read-out: MBC (GM), geometric mean of MICs, Gram (−); for MBC (GM), geometric mean of MICs, Gram (−): Gram-negative strains, 256 μM used where no activity at 128 μM
# Protocol: as §1
# Gram-positive bacteria = test system: Gram-positive bacteria
# Protocol: as §1
# [2] = test system: Gram-positive and Gram-negative bacteria
# Protocol: as §1
# [3] = LPS binding assay (BODIPY-TR-cadaverine displacement); set-up: species or system E. coli; conditions: peptide concentration higher than 4 μM; 50 μg/mL LPS, 5 μg/mL BODIPY-TR cadaverine, Tris 50 mM pH 7.4; 100% = 10 μg/mL polymyxin B
# Protocol: The abilities of the antimicrobial peptides to bind LPS were determined using the fluorescent dye BODIPY-TR-cadaverine (BC) substitution method. LPS (50 μg/mL) from E. coli O111:B4 was incubated with BC (5 μg/mL) in Tris buffer (50 mm, pH 7.4) for 4 h. Next, 50 μL of various concentrations of peptides (final concentration of 1–64 μM) and 50 μL of LPS-BC mixture were added to 96-well plates, and the fluorescence was measured using a fluorescence spectrophotometer (Infinite 200 pro, Tecan, China) at an excitation wavelength of 580 nm and an emission wavelength of 620 nm. Each test was performed three times. The values were converted to %∆F (AU) using the following equation:%ΔF (AU) = [(Fobs − F0)/(F100 − F0)] × 100 where Fobs is the fluorescence value measured in the presence of the peptide, F0 is the initial fluorescence of LPS with BC without the addition of peptides, F100 is the fluorescence value produced by adding 10 μg/mL polymyxin B.
# [4] = RP-HPLC retention time as measure of hydrophobicity; type: physicochemical; conditions: analytical Kromasil C18 column 4.6 mm × 250 mm, 5.0 μm, acetonitrile, flow 1.0 mL/min, used as measure of hydrophobicity
# Protocol: The hydrophobicities of the peptides in solution were reliably mirrored by their high-performance liquid chromatography (HPLC)retention times. The retention times for peptide HI2, HW2, HV2, HF2, and PG-1 were 11.13, 10.55, 12.20, 18.06 and 12.56 min, respectively, indicating the following hydrophobic order: HF2 > PG-1 > HV2 > HI2 > HW2(Table 1).
# The designed peptides were synthesized and purified by GL Biochem (Shanghai, China). Acetonitrile was used on an analytical Kromasil C18 column (4.6 mm × 250 mm, 5.0 μm, LC 3000, Beijing, China), and the purity of the peptides was determined to be greater than 95% via reversed-phase high-performance liquid chromatography (RP-HPLC) with a flow rate of 1.0 mL/min. The experimental molecular weights of the peptides were evaluated via ESI-MS analysis, and these values were very close to the calculated masses. Next, the peptides were dissolved in deionized water at a concentration of 2.56 mM, and the peptide solutions were stored at −20 °C.
# [5] = test system: human red blood cells (hRBCs); test: Hemolytic activity; conditions: 1 h, OD 570 nm; for hemolysis rate: at the highest concentration (128 μM), 1% hRBC in PBS, 37 °C, 0.1% Triton X-100 positive control; for MHC, minimum hemolytic concentration: concentration causing 5% hemolysis of hRBC, 1% hRBC in PBS pH 7.4, 37 °C, repeated three times
# Protocol: Briefly, collected human red blood cells (hRBCs) were washed three times with PBS (pH 7.4) and diluted to 1% in PBS. Next, equal volumes of blood cells were mixed with different peptide concentrations in 96-well plates followed by incubated at 37 °C for 1 h. The mixtures were centrifuged (1000 g, 5 min), and the supernatants were transferred to 96-well plates to measure the optical density (OD) at 570 nm. Untreated blood cells were used as negative controls, and 0.1% Triton X-100-treated blood cells were used as positive controls. The minimum peptide concentration corresponding to 5% hemolytic activity was defined as the minimal hemolytic concentration (MHC). These assays were independently repeated three times.
# [6] = Escherichia coli, ATCC25922, 24 h
# [7] = Staphylococcus epidermidis, ATCC12228, 24 h
# [8] = Salmonella enterica, PULLORUM, 24 h
# [9] = Staphylococcus aureus, ATCC43300, 24 h
# [10] = Staphylococcus aureus, ATCC29213, 24 h
# [11] = Pseudomonas aeruginosa, ATCC27853, 24 h
# [12] = S.epidermidis 12228, MHB, about 1 × 10^5 CFU/mL, 37 °C, 24 h, three independent experiments
# [13] = E. coli K88, MHB, about 1 × 10^5 CFU/mL, 37 °C, 24 h, three independent experiments
# [14] = S.aureus 43300 (methicillin-resistant), MHB, about 1 × 10^5 CFU/mL, 37 °C, 24 h, three independent experiments
# [15] = E. coli K99, MHB, about 1 × 10^5 CFU/mL, 37 °C, 24 h, three independent experiments
# [16] = S.aureus 29213, MHB, about 1 × 10^5 CFU/mL, 37 °C, 24 h, three independent experiments
# [17] = P. auruginosa 27853, MHB, about 1 × 10^5 CFU/mL, 37 °C, 24 h, three independent experiments
SMILES,MIC (E. coli ATCC25922; [6]) [µM],MIC (S. epidermidis ATCC12228; [7]) [µM],"MIC (E. coli K88; Escherichia coli, K88, 24 h) [µM]",MIC (S. pullorum C7913; [8]) [µM],"MIC [1, 9] [µM]","MIC (E. coli K99; Escherichia coli, K99, 24 h) [µM]","MIC (E. coli UB1005; Escherichia coli, UB1005, 24 h) [µM]",MIC (S. aureus ATCC29213; [10]) [µM],MIC (P. aeruginosa ATCC27853; [11]) [µM],geometric mean MIC (Gram-negative bacteria) [µM],MIC (S. epidermidis ATCC12228; [12]) [µM],MIC (E. coli K88; [13]) [µM],"MIC [1, 14] [µM]",MIC (E. coli K99; [15]) [µM],MIC (S. aureus ATCC29213; [16]) [µM],MIC (P. aeruginosa ATCC27853; [17]) [µM],"MBC (GM), geometric mean of MICs, Gram (−) (Gram-negative bacteria) [µM]",LPS binding ability relative to binding activity of polymyxin B [3],"MBC (GM), geometric mean of MICs, Gram (+) (Gram-positive bacteria; 24 h) [µM]","MBC (GM), geometric mean of MICs, Gram (+,−) ([2]; 24 h) [µM]",also measured
CN[C@H](CC(C)C)C(=O)N[C@H]1C(=O)N[C@@H](CC(N)=O)C(=O)N[C@H]2C(=O)N[C@H]3C(=O)N[C@H](C(=O)N[C@H](C(=O)O)c4cc(O)cc(O)c4-c4cc3ccc4O)[C@H](O)c3ccc(c(Cl)c3)Oc3cc2cc(c3O[C@@H]2O[C@H](CO)[C@@H](O)[C@H](O)[C@H]2O[C@H]2C[C@](C)(N)[C@H](O)[C@H](C)O2)Oc2ccc(cc2Cl)[C@H]1O [Vancomycin],8,0.5,2,8,0.5,4,16,0.5,> 128,11.3,–,–,–,–,–,–,–,–,–,–,–
"CC[C@H](C)CCCCC(=O)N[C@@H](CCN)C(=O)N[C@H](C(=O)N[C@@H](CCN)C(=O)N[C@H]1CCNC(=O)[C@H]([C@@H](C)O)NC(=O)[C@H](CCN)NC(=O)[C@H](CCN)NC(=O)[C@H](CC(C)C)NC(=O)[C@@H](Cc2ccccc2)NC(=O)[C@H](CCN)NC1=O)[C@@H](C)O [Polymyxin B, polymyxin B] (X1-[Dab]T[Dab][Dab][Dab][dF]L[Dab][Dab]T; lactam 4-C (inferred); N-terminus assumed)",–,–,–,–,–,–,–,–,–,–,32,0.5,64,1,64,2,1.12,–,–,–,"MBC (GM), geometric mean of MICs, Gram (+) (Gram-positive bacteria; Gram-positive strains, 256 μM used where no activity at 128 μM): 50.8 µM; MBC (GM), geometric mean of MICs, Gram (+,−) ([2]; all strains, 256 μM used where no activity at 128 μM): 4 µM; MIC (E. coli ATCC25922; E. coli 25922, MHB, about 1 × 10^5 CFU/mL, 37 °C, 24 h, 0.25-128 μM, three independent experiments): 2 µM; MIC (S. pullorum C7913; S.pullorum C7913, MHB, about 1 × 10^5 CFU/mL, 37 °C, 24 h, three independent experiments): 1 µM; MIC (E. coli UB1005; E. coli UB1005, MHB, about 1 × 10^5 CFU/mL, 37 °C, 24 h, three independent experiments): 1 µM"
CC(C)(O/N=C(\C(=O)N[C@@H]1C(=O)N2C(C(=O)[O-])=C(C[n+]3ccccc3)CS[C@H]12)c1csc(N)n1)C(=O)O [Ceftazidime],2,16,1,1,16,0.5,1,16,2,1.12,–,–,–,–,–,–,–,–,–,–,–
CC[C@H](C)[C@H](NC(=O)CNC(=O)[C@H]1CCCN1C(=O)[C@@H](NC(=O)[C@H](Cc1c[nH]cn1)NC(=O)[C@@H](NC(=O)[C@H](Cc1c[nH]cn1)NC(=O)[C@@H](NC(=O)[C@H](CCCNC(=N)N)NC(=O)[C@@H](N)CCCNC(=N)N)[C@@H](C)CC)[C@@H](C)CC)[C@@H](C)CC)C(=O)N[C@@H](Cc1c[nH]cn1)C(=O)N[C@H](C(=O)N[C@@H](Cc1c[nH]cn1)C(=O)N[C@H](C(=O)N[C@@H](CCCNC(=N)N)C(=O)N[C@@H](CCCNC(=N)N)C(N)=O)[C@@H](C)CC)[C@@H](C)CC [HI2] (H-RRIHIHI[dP]GIHIHIRR-NH2; N-terminus assumed),–,–,–,–,–,–,–,–,–,–,>128,32,>128,>128,>128,>128,50.80,higher than 60%,256,87.09,"MIC (E. coli ATCC25922; ATCC25922, 24 h): 32 µM; MIC (S. pullorum C7913; C7913, 24 h): 16 µM; MIC (E. coli UB1005; UB1005, 24 h): 16 µM; Retention Time [4]: 11.13 min; hemolysis rate [5]: 3.4%; MHC, minimum hemolytic concentration [5]: >128 µM"
N=C(N)NCCC[C@H](NC(=O)[C@H](CCCNC(=N)N)NC(=O)[C@H](Cc1ccccc1)NC(=O)[C@H](Cc1c[nH]cn1)NC(=O)[C@H](Cc1ccccc1)NC(=O)[C@H](Cc1c[nH]cn1)NC(=O)[C@H](Cc1ccccc1)NC(=O)CNC(=O)[C@H]1CCCN1C(=O)[C@H](Cc1ccccc1)NC(=O)[C@H](Cc1c[nH]cn1)NC(=O)[C@H](Cc1ccccc1)NC(=O)[C@H](Cc1c[nH]cn1)NC(=O)[C@H](Cc1ccccc1)NC(=O)[C@H](CCCNC(=N)N)NC(=O)[C@@H](N)CCCNC(=N)N)C(N)=O [HF2] (H-RRFHFHF[dP]GFHFHFRR-NH2; N-terminus assumed),–,–,–,–,–,–,–,–,–,–,–,2,–,4,–,–,8.00,higher than 60%,10.08,8.64,"MIC (E. coli ATCC25922; ATCC25922, 24 h): 4 µM; MIC (S. epidermidis ATCC12228; ATCC12228, 24 h): 4 µM; MIC (S. pullorum C7913; C7913, 24 h): 4 µM; MIC ([1]; ATCC43300, 24 h): 4 µM; MIC (E. coli UB1005; UB1005, 24 h): 8 µM; MIC (S. aureus ATCC29213; ATCC29213, 24 h): 64 µM; MIC (P. aeruginosa ATCC27853; ATCC27853, 24 h): >128 µM; Retention Time [4]: 18.06 min; hemolysis rate [5]: 30.46%; MHC, minimum hemolytic concentration [5]: 16 µM"
CNC(C)C1CCC(N)C(OC2C(N)CC(N)C(OC3OCC(C)(O)C(NC)C3O)C2O)O1 (centres unmarked) [Gentamicin],1,1,1,1,8,0.5,0.5,1,1,0.79,–,–,–,–,–,–,–,–,–,–,–
